This passage reports Activity and inhibition results from ChEMBL document CHEMBL3046756, “Synthesis, anti-inflammatory, and structure antioxidant activity relationship of novel 4-quinazoline” (Med Chem Res, 2013).

For data set [1], the system named is Mus musculus. Kind of data set: Toxicity in albino Mus musculus (mouse) assessed as change in toes color at 650 to 1800 mg/kg, ip measured within 24 hr. The note with it: in vivo. More on the design: dose 650-1800 mg/kg, route intraperitoneal. It counts as organism-based.
Data set [2] can be described thus: Antioxidant activity assessed as inhibition of linoleic acid peroxidation at 100 mg/l after 24 hr by spectrophotometric analysis. Type of data set: functional.
The subject of data set [3] is Mus musculus. Kind of data set: Toxicity in albino Mus musculus (mouse) assessed as rapid respiration at 650 to 1800 mg/kg, ip measured within 1 to 2 hr. It counts as organism-based. More on the design: route intraperitoneal. The note with it: in vivo.
In data set [4] the test system is Mus musculus. Kind of data set: Toxicity in albino Mus musculus (mouse) assessed as change in skin color at 650 to 1800 mg/kg, ip measured within 24 hr. It counts as organism-based. More on the design: dose 650-1800 mg/kg, route intraperitoneal. The note with it: in vivo.
Data set [5] in a line: Antioxidant activity assessed as Fe2+ chelating activity at 1.25 mg/ml after 90 min by spectrophotometric analysis. It counts as functional.
In data set [6] the test system is Mus musculus. Kind of data set: Toxicity in albino Mus musculus (mouse) assessed as increase in heart rate at 150 to 900 mg/kg, ip measured within 1 to 2 hr. It counts as organism-based. More on the design: route intraperitoneal. The note with it: in vivo.
The test system of data set [7] is Mus musculus. Nature of the data set: Toxicity in albino Mus musculus (mouse) assessed as rapid respiration at 150 to 900 mg/kg, ip measured within 1 to 2 hr. More on the design: route intraperitoneal. Type of data set: organism-based. The note with it: in vivo.
The subject of data set [8] is Mus musculus. Nature of the data set: Toxicity in albino Mus musculus (mouse) assessed as change in temperature at extremities at 150 to 900 mg/kg, ip measured within 24 hr. Type of data set: organism-based. More on the design: dose 150-900 mg/kg, route intraperitoneal. The note with it: in vivo.

Each structure is given as a SMILES string. Active and inactive are the calls of the source. No cut-off for these calls is given here.

For `COC(=O)c1ccccc1NC(=O)/C=C/c1ccc(O)c(O)c1`, the Activity result in the data set with Mus musculus [1] is “Toxic”; in the data set with Mus musculus [3], “Toxic”; with Mus musculus [4], “Toxic”; in data set [5] it was 30%. In addition, the inhibition entry in data set [2] was “Active”.
For the compound `O=c1c2ccccc2nc2n1NC(c1ccc(O)c(O)c1)C2` (stereo not drawn), the Activity entry in the data set with Mus musculus [6], in the data set with Mus musculus [7] and in the data set on Mus musculus [8] was “Toxic” each time.
